Experimental data taken from US20220024945A1, “THERAPEUTIC COMPOUNDS AND COMPOSITIONS, AND METHODS OF USE THEREOF” (Genentech, Inc., priority 2017, published 2022).
Read-outs that look alike come from different tables or passages of the source. One block for each molecule: values may come before it.

Experiments:
[1] = biological target: isolated recombinant JAK1 kinase domain (Homo sapiens, UniProt P23458); assay: JAK enzyme assay (Caliper LabChip), JAK1 kinase domain; assay type: biochemical; settings: ATP 25 μM; 1.5 nM JAK1; Morrison tight binding model
isolated recombinant JAK1 kinase domain, sequence (P23458 875-1153 limits assumed): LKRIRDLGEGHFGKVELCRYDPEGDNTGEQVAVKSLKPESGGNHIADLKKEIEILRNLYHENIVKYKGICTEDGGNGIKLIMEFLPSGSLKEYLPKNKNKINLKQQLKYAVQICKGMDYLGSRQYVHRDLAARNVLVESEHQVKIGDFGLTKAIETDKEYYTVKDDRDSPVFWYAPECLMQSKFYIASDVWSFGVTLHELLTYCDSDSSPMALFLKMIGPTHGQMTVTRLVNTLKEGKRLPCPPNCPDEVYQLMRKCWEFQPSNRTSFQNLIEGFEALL

[2] = system: JAK1-dependent STAT6 phosphorylation downstream of IL-13 stimulation, BEAS-2B cells; assay: JAK1 pathway assay in cell lines: P-STAT6 in BEAS-2B cells + IL13; assay type: cell-based; settings: BEAS-2B human bronchial epithelial cells, 1 hr compound preincubation, read-out: P-STAT6 BEAS2B + IL13 IC50
Experimental: JAK1 Pathway Assay in Cell Lines was Carried Out as Follows:
Inhibitor potency (EC50) was determined in cell-based assays designed to measure JAK1 dependent STAT phosphorylation. As noted above, inhibition of IL-4, IL-13, and IL-9 signaling by blocking the Jak/Stat signaling pathway can alleviate asthmatic symptoms in pre-clinical lung inflammation models (Mathew et al., 2001, J Exp Med 193(9): 1087-1096; Kudlacz et. al., 2008, Eur J. Pharmacol 582(1-3): 154-161).
In one assay approach, TF-1 human erythroleukemia cells obtained from the American Type Culture Collection (ATCC; Manassas, Va.) were used to measure JAK1-dependent STAT6 phosphorylation downstream of IL-13 stimulation. Prior to use in the assays, TF-1 cells were starved of GM-CSF overnight in OptiMEM medium (Life Technologies, Grand Island, N.Y.) supplemented with 0.5% charcoal/dextran stripped fetal bovine serum (FBS), 0.1 mM non-essential amino acids (NEAA), and 1 mM sodium pyruvate. The assays were run in 384-well plates in serum-free OptiMEM medium using 300,000 cells per well. In a second assay approach, BEAS-2B human bronchial epithelial cells obtained from ATCC were plated at 100,000 cells per well of a 96-well plate one day prior to the experiment. The BEAS-2B assay was run in complete growth medium (bronchial epithelial basal medium plus bulletkit; Lonza; Basel, Switzerland).
Test compounds were serially diluted 1:2 in DMSO and then diluted 1:50 in medium just before use. Diluted compounds were added to the cells, for a final DMSO concentration of 0.2%, and incubated for 30 m (for the TF-1 assay) or 1 hr (for the BEAS-2B assay) at 37° C. Then, cells were stimulated with human recombinant cytokine at their respective EC90 concentrations, as previously determined for each individual lot. Cells were stimulated with […] (R&D Systems, Minneapolis, Minn.) for 15 m/at 37° C. The TF-1 cell reactions were stopped by the direct addition of 10× lysis buffer (Cell Signaling Technologies, Danvers, Mass.), whereas the BEAS-2B cell incubations were halted by the removal of medium and addition of 1× lysis buffer. The resultant samples were frozen in the plates at −80° C. Compound mediated inhibition of STAT6 phosphorylation was measured in the cell lysates using MesoScale Discovery (MSD) technology (Gaithersburg, Md.). EC50 values were determined as the concentration of compound required for 50% inhibition of STAT phosphorylation relative to that measured for the DMSO control.

[3] = biological target: isolated recombinant JAK2 kinase domain (Homo sapiens, UniProt O60674); assay: JAK enzyme assay (Caliper LabChip), JAK2 kinase domain; settings: ATP 25 μM, 0.2 nM JAK2, Morrison tight binding model
isolated recombinant JAK2 kinase domain, sequence (O60674 849-1124 limits assumed): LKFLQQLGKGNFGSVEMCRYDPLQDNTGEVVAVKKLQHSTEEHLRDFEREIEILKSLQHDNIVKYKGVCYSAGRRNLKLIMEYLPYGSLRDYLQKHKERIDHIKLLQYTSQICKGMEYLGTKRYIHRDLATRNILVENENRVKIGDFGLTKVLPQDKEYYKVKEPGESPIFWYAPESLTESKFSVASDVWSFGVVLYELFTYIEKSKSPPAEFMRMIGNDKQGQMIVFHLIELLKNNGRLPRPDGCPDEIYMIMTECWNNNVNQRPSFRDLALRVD
Experimental: JAK Enzyme Assays were Carried Out as Follows:
The activity of the isolated recombinant JAK1 and JAK2 kinase domain was measured by monitoring phosphorylation of a peptide derived from JAK3 ([sequence] fluorescently labeled on the N-terminus with 5-carboxyfluorescein) using the Caliper LabChip® technology (Caliper Life Sciences, Hopkinton, Mass.). […] Reactions were incubated at 22° C. in 384-well polypropylene microtiter plates for 30 minutes and then stopped by addition of 25 μL of an EDTA containing solution (100 mM HEPES buffer (pH 7.2), 0.015% Brij-35, 150 mM EDTA), resulting in a final EDTA concentration of 50 mM. After termination of the kinase reaction, the proportion of phosphorylated product was determined as a fraction of total peptide substrate using the Caliper LabChip® 3000 according to the manufacturer's specifications.

SMILES: O=C(Nc1c[nH]nc1-c1cc(SC2CCCNC2)ccc1OC(F)F)c1cnn2cccnc12 (single isomer, unassigned) [Example 37, N-[3-[2-(difluoromethoxy)-5-(3-piperidylsulfanyl)phenyl]-1H-pyrazol-4-yl]pyrazolo[1,5-a]pyrimidine-3-carboxamide]
Ki [1]: 1.16 nM
IC50 [2]: 222 nM
Ki [3]: 0.57 nM

SMILES: CN1CCCC(Sc2ccc(OC(F)F)c(-c3n[nH]cc3NC(=O)c3cnn4cccnc34)c2)C1 (single isomer, unassigned) [Example 38, N-[3-[2-(difluoromethoxy)-5-[(1-methyl-3-piperidyl)sulfanyl]phenyl]-1H-pyrazol-4-yl]pyrazolo[1,5-a]pyrimidine-3-carboxamide]
Ki [1]: 2.93 nM
IC50 ([2]; Homo sapiens, BEAS-2B, 1 h): 56 nM
Ki [3]: 1.38 nM

SMILES: O=C(Nc1cn(C2CN(C3CC(O)C3)C2)nc1-c1cc(SC2COC2)ccc1OC(F)F)c1cnn2cccnc12 (single isomer, unassigned) [Example 40, N-[3-[2-(difluoromethoxy)-5-(oxetan-3-ylsulfanyl)phenyl]-1-[1-(3-hydroxycyclobutyl)azetidin-3-yl]pyrazol-4-yl]pyrazolo[1,5-a]pyrimidine-3-carboxamide]
Ki [1]: 1.18 nM
IC50 [2]: 45 nM
Ki [3]: 1.02 nM

SMILES: O=C(Nc1cn(Cc2cn(C3CCN([C@H]4CCOC4)CC3)nn2)nc1-c1cc(SC2COC2)ccc1OC(F)F)c1cnn2cccnc12 (stereo in doubt) [Example 20, N-[3-[2-(difluoromethoxy)-5-(oxetan-3-ylsulfanyl)phenyl]-1-[[1-[1-[rac-(3S)-tetrahydrofuran-3-yl]-4-piperidyl]triazol-4-yl]methyl]pyrazol-4-yl]pyrazolo[1,5-a]pyrimidine-3-carboxamide; formic acid]
Ki [1]: 0.66 nM
IC50 ([2]; Homo sapiens, BEAS-2B, 1 h): 67 nM
Ki [3]: 0.44 nM

SMILES: O=C(Nc1cn(Cc2cn(C3CCN([C@@H]4CCOC4)CC3)nn2)nc1-c1cc(SC2COC2)ccc1OC(F)F)c1cnn2cccnc12 (stereo in doubt) [Example 21, N-[3-[2-(difluoromethoxy)-5-(oxetan-3-ylsulfanyl)phenyl]-1-[[1-[1-[rac-(3R)-tetrahydrofuran-3-yl]-4-piperidyl]triazol-4-yl]methyl]pyrazol-4-yl]pyrazolo[1,5-a]pyrimidine-3-carboxamide]
Ki [1]: 0.66 nM
IC50 ([2]; Homo sapiens, BEAS-2B, 1 h): 57 nM
Ki [3]: 0.38 nM

SMILES: O=C(Nc1c[nH]nc1-c1cc(SC2CCOCC2)ccc1OC(F)F)c1cnn2cccnc12 [Example 1, N-[3-[2-(difluoromethoxy)-5-tetrahydropyran-4-ylsulfanyl-phenyl]-1H-pyrazol-4-yl]pyrazolo[1,5-a]pyrimidine-3-carboxamide]
Ki [1]: 0.4 nM
IC50 ([2]; Homo sapiens, BEAS-2B, 1 h): 11 nM
Ki [3]: 0.15 nM

SMILES: O=C(Nc1c[nH]nc1-c1cc(SC2CCCCC2)ccc1OC(F)F)c1cnn2cccnc12 [Example 2, N-[3-[5-cyclohexylsulfanyl-2-(difluoromethoxy)phenyl]-1H-pyrazol-4-yl]pyrazolo[1,5-a]pyrimidine-3-carboxamide]
Ki [1]: 0.67 nM
IC50 ([2]; Homo sapiens, BEAS-2B, 1 h): 43 nM
Ki [3]: 0.28 nM

SMILES: Cn1cc(NC(=O)c2cnn3cccnc23)c(-c2cc(SC3COC3)ccc2OC(F)F)n1 [Example 15, N-[3-[2-(difluoromethoxy)-5-(oxetan-3-ylsulfanyl)phenyl]-1-methyl-pyrazol-4-yl]pyrazolo[1,5-a]pyrimidine-3-carboxamide]
IC50 ([2]; Homo sapiens, BEAS-2B, 1 h): 14 nM
Ki [3]: 0.13 nM

SMILES: CSc1ccc(OC(F)F)c(-c2nn(C3CCOCC3)cc2NC(=O)c2cnn3cccnc23)c1 [Example 16, N-[3-[2-(difluoromethoxy)-5-methylsulfanyl-phenyl]-1-tetrahydropyran-4-yl-pyrazol-4-yl]pyrazolo[1,5-a]pyrimidine-3-carboxamide]
IC50 ([2]; Homo sapiens, BEAS-2B, 1 h): 31 nM
Ki [3]: 0.91 nM

Second part, led by results:

Ki [1]: 0.35 nM
Ki [3]: 0.25 nM
SMILES: CC[C@H](O)Cn1cc(NC(=O)c2cnn3cccnc23)c(-c2cc(SC)ccc2OC(F)F)n1 (racemic) [Example 41, N-[3-[2-(difluoromethoxy)-5-methylsulfanyl-phenyl]-1-[rac-(2S)-2-hydroxybutyl]pyrazol-4-yl]pyrazolo[1,5-a]pyrimidine-3-carboxamide]
IC50 ([2]; Homo sapiens, BEAS-2B, 1 h): 13 nM

Ki [1]: 9.73 nM
Ki [3]: 3.47 nM
SMILES: CN1CCCC(Sc2ccc(OC(F)F)c(-c3n[nH]cc3NC(=O)c3cnn4cccnc34)c2)C1 (single isomer, unassigned) [Example 31, N-[3-[2-(difluoromethoxy)-5-[(1-methyl-3-piperidyl)sulfanyl]phenyl]-1H-pyrazol-4-yl]pyrazolo[1,5-a]pyrimidine-3-carboxamide]

Ki [1]: 91.5 nM
Ki [3]: 51.7 nM
SMILES: O=C(Nc1c[nH]nc1-c1cc(SC2CCCNC2)ccc1OC(F)F)c1cnn2cccnc12 (single isomer, unassigned) [Example 36, N-[3-[2-(difluoromethoxy)-5-(3-piperidylsulfanyl)phenyl]-1H-pyrazol-4-yl]pyrazolo[1,5-a]pyrimidine-3-carboxamide]
IC50 [2]: > 1000 nM

Ki [1]: 1.44 nM
Ki [3]: 1.18 nM
SMILES: O=C(Nc1cn(C2CN(C3CC(O)C3)C2)nc1-c1cc(SC2COC2)ccc1OC(F)F)c1cnn2cccnc12 (single isomer, unassigned) [Example 39, N-[3-[2-(difluoromethoxy)-5-(oxetan-3-ylsulfanyl)phenyl]-1-[1-(3-hydroxycyclobutyl)azetidin-3-yl]pyrazol-4-yl]pyrazolo[1,5-a]pyrimidine-3-carboxamide]
IC50 ([2]; Homo sapiens, BEAS-2B, 1 h): 35 nM

Ki [1]: 0.69 nM
Ki [3]: 0.49 nM
SMILES: CC(C)Sc1ccc(OC(F)F)c(-c2nn(Cc3cn(C4CCN([C@H]5CCOC5)CC4)nn3)cc2NC(=O)c2cnn3cccnc23)c1 (stereo in doubt) [Example 11, N-[3-[2-(difluoromethoxy)-5-isopropylsulfanyl-phenyl]-1-[[1-[1-[rac-(3S)-tetrahydrofuran-3-yl]-4-piperidyl]triazol-4-yl]methyl]pyrazol-4-yl]pyrazolo[1,5-a]pyrimidine-3-carboxamide; formic acid]
IC50 ([2]; Homo sapiens, BEAS-2B, 1 h): 23 nM

Ki [1]: 0.64 nM
Ki [3]: 0.46 nM
SMILES: CC(C)Sc1ccc(OC(F)F)c(-c2nn(Cc3cn(C4CCN([C@@H]5CCOC5)CC4)nn3)cc2NC(=O)c2cnn3cccnc23)c1 (stereo in doubt) [Example 12, N-[3-[2-(difluoromethoxy)-5-isopropylsulfanyl-phenyl]-1-[[1-[1-[rac-(3R)-tetrahydrofuran-3-yl]-4-piperidyl]triazol-4-yl]methyl]pyrazol-4-yl]pyrazolo[1,5-a]pyrimidine-3-carboxamide; formic acid]
IC50 ([2]; Homo sapiens, BEAS-2B, 1 h): 22 nM

Ki [1]: 0.56 nM
Ki [3]: 0.36 nM
SMILES: O=C(Nc1cn(Cc2cn(C3CCN([C@H]4CCOC4)CC3)nn2)nc1-c1cc(SC2CC2)ccc1OC(F)F)c1cnn2cccnc12 (stereo in doubt) [Example 13, N-[3-[5-cyclopropylsulfanyl-2-(difluoromethoxy)phenyl]-1-[[1-[1-[rac-(3S)-tetrahydrofuran-3-yl]-4-piperidyl]triazol-4-yl]methyl]pyrazol-4-yl]pyrazolo[1,5-a]pyrimidine-3-carboxamide]
IC50 ([2]; Homo sapiens, BEAS-2B, 1 h): 17 nM

Ki [1]: 0.4 nM
Ki [3]: 0.29 nM
SMILES: O=C(Nc1cn(Cc2cn(C3CCN([C@@H]4CCOC4)CC3)nn2)nc1-c1cc(SC2CC2)ccc1OC(F)F)c1cnn2cccnc12 (stereo in doubt) [Example 14, N-[3-[5-cyclopropylsulfanyl-2-(difluoromethoxy)phenyl]-1-[[1-[1-[rac-(3R)-tetrahydrofuran-3-yl]-4-piperidyl]triazol-4-yl]methyl]pyrazol-4-yl]pyrazolo[1,5-a]pyrimidine-3-carboxamide]
IC50 ([2]; Homo sapiens, BEAS-2B, 1 h): 13 nM

Ki [1]: 0.45 nM
SMILES: O=C(Nc1c[nH]nc1-c1cc(SC2CCOC2)ccc1OC(F)F)c1cnn2cccnc12 (centres unmarked) [Example 8, N-[3-[2-(difluoromethoxy)-5-tetrahydrofuran-3-ylsulfanyl-phenyl]-1H-pyrazol-4-yl]pyrazolo[1,5-a]pyrimidine-3-carboxamide]
IC50 ([2]; Homo sapiens, BEAS-2B, 1 h): 19 nM
